Reference: ChEMBL document CHEMBL4418912, “Methods of identifying antagonists of the hTAS2R46 bitter taste receptor” (2014)
Calls of active or inactive are those of the source. No cut-off for these calls is given here.

How the values were obtained:
Type in all cases: functional, cell-based
[1] = target: T1, Taste receptor type 2 member 30 (Homo sapiens) (UniProt P59541); experiment: Antagonist activity at recombinant human N-terminal rat ST3 receptor-fused TAS2R47 expressed in HEK293T cells co-expressing Galpha16gust44 assessed as inhibition of brucine-induced intracellular calcium level at 100 uM by FLIPR assay
T1 sequence (whole entry): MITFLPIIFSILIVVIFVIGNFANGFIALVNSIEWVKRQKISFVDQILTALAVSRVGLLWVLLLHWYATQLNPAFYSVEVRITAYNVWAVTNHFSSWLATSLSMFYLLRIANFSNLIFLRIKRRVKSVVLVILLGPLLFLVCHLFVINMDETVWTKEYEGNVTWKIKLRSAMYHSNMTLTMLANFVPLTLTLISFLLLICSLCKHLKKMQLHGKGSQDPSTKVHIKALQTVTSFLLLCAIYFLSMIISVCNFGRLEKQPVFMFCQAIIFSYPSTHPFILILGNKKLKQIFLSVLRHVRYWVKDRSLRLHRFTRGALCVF

[2] = target: T2, Taste receptor type 2 member 43 (Homo sapiens) (UniProt P59537); experiment: Antagonist activity at recombinant human N-terminal rat ST3 receptor-fused TAS2R43 expressed in HEK293T cells co-expressing Galpha16gust44 assessed as inhibition of aristolochic acid-induced intracellular calcium level at 100 uM by FLIPR assay
T2 sequence (whole entry): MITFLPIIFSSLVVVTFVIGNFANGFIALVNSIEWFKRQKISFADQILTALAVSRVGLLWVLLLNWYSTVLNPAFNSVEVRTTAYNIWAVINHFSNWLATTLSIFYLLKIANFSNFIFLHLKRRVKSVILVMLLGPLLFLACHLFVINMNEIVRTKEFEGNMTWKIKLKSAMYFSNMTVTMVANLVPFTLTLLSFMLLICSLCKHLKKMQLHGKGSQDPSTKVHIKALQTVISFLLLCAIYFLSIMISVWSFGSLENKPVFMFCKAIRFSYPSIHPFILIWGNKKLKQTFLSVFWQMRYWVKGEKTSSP

[3] = target: T3, Taste receptor type 2 member 16 (Homo sapiens) (UniProt Q9NYV7); experiment: Antagonist activity at recombinant human N-terminal rat ST3 receptor-fused TAS2R16 expressed in HEK293T cells co-expressing Galpha16gust44 assessed as inhibition of D-salicin-induced increase in intracellular calcium level at 100 uM by FLIPR assay
T3 sequence (whole entry): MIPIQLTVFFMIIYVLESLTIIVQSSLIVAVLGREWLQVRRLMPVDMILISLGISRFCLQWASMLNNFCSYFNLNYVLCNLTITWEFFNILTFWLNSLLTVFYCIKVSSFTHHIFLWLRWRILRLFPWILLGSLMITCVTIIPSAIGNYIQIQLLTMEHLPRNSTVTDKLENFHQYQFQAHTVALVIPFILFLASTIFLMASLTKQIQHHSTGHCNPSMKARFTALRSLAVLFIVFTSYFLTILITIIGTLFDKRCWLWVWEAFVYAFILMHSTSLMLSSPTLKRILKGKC

[4] = target: T4, Taste receptor type 2 member 13 (Homo sapiens) (UniProt Q9NYV9); experiment: Antagonist activity at recombinant human N-terminal rat ST3 receptor-fused TAS2R13 expressed in HEK293T cells co-expressing Galpha16gust44 assessed as inhibition of denatonium benzoate-induced increase in intracellular calcium level at 100 uM by FLIPR assay
T4 sequence (whole entry): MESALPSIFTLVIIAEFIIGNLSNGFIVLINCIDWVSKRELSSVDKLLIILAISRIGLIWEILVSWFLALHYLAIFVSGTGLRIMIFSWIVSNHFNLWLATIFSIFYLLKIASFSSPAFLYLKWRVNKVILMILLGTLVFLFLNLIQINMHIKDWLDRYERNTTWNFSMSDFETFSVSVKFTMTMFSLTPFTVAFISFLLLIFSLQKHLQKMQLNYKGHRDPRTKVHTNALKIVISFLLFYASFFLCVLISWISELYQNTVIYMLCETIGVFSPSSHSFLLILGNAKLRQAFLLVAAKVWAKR

[5] = target: T5, Taste receptor type 2 member 38 (Homo sapiens) (UniProt P59533); experiment: Antagonist activity at recombinant human N-terminal rat ST3 receptor-fused TAS2R38 expressed in HEK293T cells co-expressing Galpha16gust44 assessed as inhibition of phenylthiocarbamide-induced increase in intracellular calcium level at 100 uM by FLIPR assay
T5 sequence (whole entry): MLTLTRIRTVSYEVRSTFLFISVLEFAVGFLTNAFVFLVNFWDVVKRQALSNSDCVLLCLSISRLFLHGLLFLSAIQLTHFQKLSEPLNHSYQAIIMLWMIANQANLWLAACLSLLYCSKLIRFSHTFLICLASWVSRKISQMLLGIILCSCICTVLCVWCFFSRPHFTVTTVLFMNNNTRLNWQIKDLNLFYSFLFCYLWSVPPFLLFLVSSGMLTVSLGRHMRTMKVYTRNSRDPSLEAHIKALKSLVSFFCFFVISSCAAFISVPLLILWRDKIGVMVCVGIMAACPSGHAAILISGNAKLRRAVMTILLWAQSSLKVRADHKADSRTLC

[6] = target: Taste receptor type 2 member 40 (Homo sapiens) (UniProt P59535); experiment: Antagonist activity at recombinant human N-terminal rat ST3 receptor-fused TAS2R40 expressed in HEK293T cells co-expressing Galpha16gust44 assessed as inhibition of cohumulone-induced intracellular calcium level at 100 uM by FLIPR assay
[7] = target: T6, Taste receptor type 2 member 9 (Homo sapiens) (UniProt Q9NYW1); experiment: Antagonist activity at recombinant human N-terminal rat ST3 receptor-fused TAS2R9 expressed in HEK293T cells co-expressing Galpha16gust44 assessed as inhibition of ofloxacin-induced increase in intracellular calcium level at 100 uM by FLIPR assay
T6 sequence (whole entry): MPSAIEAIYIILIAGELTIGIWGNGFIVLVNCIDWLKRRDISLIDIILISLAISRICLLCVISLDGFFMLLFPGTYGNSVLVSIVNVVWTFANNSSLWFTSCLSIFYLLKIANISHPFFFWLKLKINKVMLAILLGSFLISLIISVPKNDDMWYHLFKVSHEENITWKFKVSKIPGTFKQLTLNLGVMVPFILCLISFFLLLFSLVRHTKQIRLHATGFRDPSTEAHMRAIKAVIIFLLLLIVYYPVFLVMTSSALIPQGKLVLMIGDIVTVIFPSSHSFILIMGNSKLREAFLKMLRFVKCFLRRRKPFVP

Chain of Taste receptor type 2 member 40 (Homo sapiens) (P59535 whole entry, the tested form may be a part): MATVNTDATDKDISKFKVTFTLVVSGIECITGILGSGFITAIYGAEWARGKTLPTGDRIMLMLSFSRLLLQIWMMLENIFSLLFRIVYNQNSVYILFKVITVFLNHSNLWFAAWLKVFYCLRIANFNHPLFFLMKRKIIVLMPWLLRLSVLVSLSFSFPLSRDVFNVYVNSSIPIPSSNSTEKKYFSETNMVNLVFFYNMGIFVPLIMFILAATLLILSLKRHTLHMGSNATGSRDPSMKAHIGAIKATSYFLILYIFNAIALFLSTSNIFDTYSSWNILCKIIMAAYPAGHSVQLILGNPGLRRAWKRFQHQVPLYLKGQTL

Row | SMILES | inhibition [1] | inhibition [2] | inhibition [3] | inhibition [4] | inhibition [5] | inhibition [6] | inhibition [7]
1 | C/C1=C\C[C@H](O)[C@@H](C)C[C@H]2OC(=O)[C@@H](C)[C@@H]2CC1 | Active | Active | inactive | inactive | inactive | Active | inactive
2 | C/C1=C\C[C@H](O)/C(C)=C/[C@H]2OC(=O)[C@@H](C)[C@@H]2CC1 | Active | Active | inactive | inactive | inactive | Active | inactive
